Reference: US20220362386A1, “LIQUID COMPOSITIONS COMPRISING A LEVODOPA AMINO ACID CONJUGATE AND USES THEREOF” (NeuroDerm, Ltd., priority 2019, published 2022)
Structures can show the parent of a compound that is named as a salt. Where two headings read alike, the source gives them in different places. Non-standard residues stand in square brackets, D forms with d. Residues, ends and D or L forms follow the SMILES beside them. Dopa = N[C@@H](Cc1ccc(O)c(O)c1)C(=O)O

What was measured:
[1] = Protein binding, solid phase extraction (SPE) method; assay type: in vitro ADME, human; conditions: human, human plasma, 1.0E−05M, SPE sample preparation
Method: (§1) A solid phase extraction (SPE) method was used to prepare samples for several compounds in the plasma protein binding assay. The following SPE protocols were followed:
(§2) Sorbent: Waters Oasis MCX 96—well MicroElution Plate—Cat #186001830BA Sample: 200 μL of plasma spiked at 10 μM with test compound. Sample was diluted 1:1 with 4% phosphoric acid in water and mixed for 15 minutes 1) Place Oasis plate on vacuum manifold and set vacuum to 5″ Hg; 2) Condition with 200 μL methanol; 3) Equilibrate with 200 μL water; 4) Load dilute plasma sample; 5) Wash with 200 μL 2% formic acid in water; 6) Wash with 400 μL methanol; and 7) Elute with 100 μL 5% NH4OH in methanol.
(§3) Sorbent: Waters Oasis MAX 96-well MicroElution plate—Cat #186001829 Sample: 200 μL of plasma spiked at 10 μM with test compound. Sample was diluted 1:1 with 4% phosphoric acid in water and mixed for 15 minutes 1) Place Oasis plate on vacuum manifold and set vacuum to 5″ Hg; 2) Condition with 200 μL methanol; 3) Equilibrate with 200 μL water; 4) Load dilute plasma sample; 5) Wash with 200 μL 5% NH4OH in water; 6) Wash with 400 μL methanol; and 7) Elute with 100 μL 2% formic acid in methanol.

human plasma [2] = experiment: as above; assay type: in vitro ADME; conditions: 1.0E−05M; SPE sample preparation
Method: as §1, §2, §3

[3] = Protein binding, equilibrium dialysis method; assay type: in vitro ADME, human; conditions: human, human plasma, pH 7.4, 1.0E-05M
Method: (§4) The protein binding values of various LDAA compounds in their TFA salt form (10^−5M) were tested in human plasma. The equilibrium dialysis technique was used to separate the fraction of the test compound that was unbound from the fraction of the test compound that bound to proteins during the test. The test was performed on 96-well plates in a dialysis block constructed from Teflon™.
(§5) The protein containing matrix used was human plasma, wherein the assay matrix was human serum albumin and alpha-1 acid glycoprotein. The protein matrix was spiked with each test compound at 10 μM (by default, n=2) with a final DMSO concentration of 1%. The dialysate compartment is loaded with phosphate buffered saline (PBS, pH 7.4), and the sample compartment was loaded with an equal volume of the spiked protein matrix. The dialysis plate was then sealed and incubated at 37° C. for 4 h.
(§6) Following the incubation, samples were taken from each compartment, diluted with PBS followed by the addition of acetonitrile, after which the samples were centrifuged. The supernatants were collected and analyzed by HPLC-MS/MS. The HPLC tests included a binary LC pump with an autosampler, a C18 column (2×20 mm), and gradient elution. The HPLC conditions were adjusted when necessary.
(§7) A control sample (n=2) was prepared from the spiked protein matrix in the same manner; however, no dialysis was performed on the control. It is noted that the control sample served as the bases for the recovery determination.
(§8) Acebutolol, quinidine, and warfarin were used in each assay as reference compounds, wherein it is known that those reference compounds provide low, medium and high human plasma protein binding values, respectively.
(§9) The % of the tested compound that is bound to proteins and the recovery values were calculated as follows:
(§10) Protein binding (%)=100×(Areap−Areab)/Areap
(§11) Recovery (%)=100×(Areap−Areab)/Areac
(§12) The determination of the recovery % serves as an indicator of reliability of the calculated protein binding value. […] This is most likely due to non-specific binding or degradation of the test compound. It is noted that a recovery of above 60% is considered to be reliable, while under 60% recovery, the results of the test are considered to be unreliable.

human plasma [4] = experiment: Protein binding, equilibrium dialysis method; assay type: in vitro ADME; conditions: 1.0E-05M; 37° C., 4 h
Method: as §4, §5, §6, §7, §8, §9, §10, §11, §12

[5] = Human liver S9 stability test; assay type: in vitro ADME; conditions: slope of the percentage decrease of remaining compound; substrate 10 μM; S9 protein 0.2 mg/mL; 0-60 minutes
Method: The stability of several LDAA compounds, in their TFA salt form, in human liver S9 was tested using commercially available liver S9. The substrate concentration was 10 μM, the S9 protein concentration was 0.2 mg/mL, and the incubation time 0, 5, 15, 30 and 60 minutes.
The results are described in Table 18, wherein the results describe the Ke, i.e., the slope of the percentage decrease of the remaining amount of the compound, measured at each of the above time points, such that the higher the Ke the faster the metabolism.

[6] = Comparative formulation tests, physical stability (Tables 32a-c, 33a-c); assay type: physicochemical; conditions: LDAA TFA salt/CD formulation; for Physical stability (visual), Day 1: Day 1, room temperature; for Physical stability (visual), Day 2: Day 2, room temperature; for Physical stability (visual), Day 5: Day 5, room temperature after two days at 2-8° C.; for Physical stability (visual), Day 6: Day 6, room temperature after two days at 2-8° C.; for Physical stability (visual), Day 40: Day 40, returned to 2-8° C.
Method: It is noted that the formulations were similarly to those above; however, CD was added, and further, the amounts of the antioxidants, i.e., ascorbic acid and NAC, were added at three different concentrations, as detailed in Tables 32a-c below. Further, an additional amount of arginine was added to the solution in order to adjust the pH to a physiologically acceptable pH.
The formulations prepared as detailed in Tables 32a, 32b and 32c were (a) held at room temperature for two days; (b) transferred to a refrigerator (2-8° C.) for two days; and (c) transferred from the refrigerator to room temperature for an additional two days, during which they were assessed again for precipitants. The formulations were then returned to the refrigerator (2-8° C.) and assessed for precipitants on day 40. The physical stability of each formulation was assessed on the first two days and again on the last two days. The physical stability of the formulations was assessed visually. A clear solution was considered to be stable, while a solution comprising precipitants was considered to be physically unstable. The stability results of the formulations of Tables 32a, 32b and 32c are detailed in Tables 33a, 33b and 33c, respectively.

[7] = NB 144-15, ~0.1% Asc + ~0.1% NAC
[8] = NB 144-18, ~0.4% Asc + ~0.4% NAC
[9] = NB 144-20, ~0.8% Asc + ~0.8% NAC

Compound: N[C@@H](Cc1ccc(O)c(O)c1)C(=O)O [LD (control), L-3,4-dihydroxyphenylalanine, reference compound]
- recovery at 10 μM ([1]; read-out: % Recovery 1st): 59%
- recovery at 10 μM ([1]; read-out: % Recovery 2nd): 78%
- recovery at 10 μM ([1]; read-out: % Recovery Mean): 68%
- % Protein Bound 1st (human plasma [2]): 30.4%
- % Protein Bound 2nd (human plasma [2]): 20.2%
- % Protein Bound Mean (human plasma [2]): 25%

Compound: NC(=O)CC[C@H](NC(=O)[C@@H](N)Cc1ccc(O)c(O)c1)C(=O)O [LD-Gln TFA salt, Levodopa Glutamine TFA Salt] (H-[Dopa]-Gln-OH)
- recovery at 4 h, 10 μM ([3]; read-out: % Recovery 1st): 77%
- recovery at 4 h, 10 μM ([3]; read-out: % Recovery 2nd): 78%
- recovery at 4 h, 10 μM ([3]; read-out: % Recovery Mean): 78%
- % Protein Bound 1st (human plasma [4]): 99.7%
- % Protein Bound 2nd (human plasma [4]): 99.8%
- % Protein Bound Mean (human plasma [4]): 99%

Compound: NC(=O)C[C@H](NC(=O)[C@@H](N)Cc1ccc(O)c(O)c1)C(=O)O [LD-Asn TFA salt, Levodopa Asparagine TFA Salt] (H-[Dopa]-Asn-OH)
- Ke [5]: 0.0015

Compound: N[C@@H](Cc1ccc(O)c(O)c1)C(=O)N[C@@H](Cc1c[nH]c2ccccc12)C(=O)O [LD-Trp TFA salt, Levodopa Tryptophan] (H-[Dopa]-Trp-OH)
- recovery at 4 h, 10 μM ([3]; read-out: % Recovery 1st): 68%
- recovery at 4 h, 10 μM ([3]; read-out: % Recovery 2nd): 74%
- recovery at 4 h, 10 μM ([3]; read-out: % Recovery Mean): 71%
- % Protein Bound 1st (human plasma [4]): 54.8%
- % Protein Bound 2nd (human plasma [4]): 66%
- % Protein Bound Mean (human plasma [4]): 60%
- Physical stability (visual), Day 1 [6, 7]: Stable
- Physical stability (visual), Day 2 [6, 7]: Stable
- Physical stability (visual), Day 5 [6, 7]: Stable
- Physical stability (visual), Day 6 [6, 7]: Stable
- Physical stability (visual), Day 40 [6, 7]: Stable
- Physical stability (visual), Day 1 [6, 8]: Stable
- Physical stability (visual), Day 2 [6, 8]: Stable
- Physical stability (visual), Day 5 [6, 8]: Stable
- Physical stability (visual), Day 6 [6, 8]: Stable
- Physical stability (visual), Day 40 [6, 8]: Stable
- Physical stability (visual), Day 1 [6, 9]: Stable
- Physical stability (visual), Day 2 [6, 9]: Stable
- Physical stability (visual), Day 5 [6, 9]: Stable
- Physical stability (visual), Day 6 [6, 9]: Stable
- Physical stability (visual), Day 40 [6, 9]: Stable

Compound: N[C@@H](CSC[C@H](NC(=O)[C@@H](N)Cc1ccc(O)c(O)c1)C(=O)O)C(=O)O (single isomer, unassigned; peak 2) [LD-LA2 TFA salt, Levodopa Lanthionine Peak 2 TFA Salt]
- recovery at 10 μM ([1]; read-out: % Recovery 1st): 39%
- recovery at 10 μM ([1]; read-out: % Recovery 2nd): 46%
- recovery at 10 μM ([1]; read-out: % Recovery Mean): 43%
- % Protein Bound 1st (human plasma [2]): 18.7%
- % Protein Bound Mean (human plasma [2]): 18.7%

Compound: N[C@@H](CSC[C@@H](NC(=O)[C@@H](N)Cc1ccc(O)c(O)c1)C(=O)O)C(=O)O (single isomer, unassigned; peak 1) [LD-LA1 TFA salt, Levodopa Lanthionine Peak 1 TFA Salt]
- recovery at 4 h, 10 μM ([3]; read-out: % Recovery 1st): 75%
- recovery at 4 h, 10 μM ([3]; read-out: % Recovery 2nd): 71%
- recovery at 4 h, 10 μM ([3]; read-out: % Recovery Mean): 73%
- % Protein Bound 1st (human plasma [4]): 24.4%
- % Protein Bound 2nd (human plasma [4]): 27.8%
- % Protein Bound Mean (human plasma [4]): 26%
- Physical stability (visual), Day 1 [6, 7]: Stable
- Physical stability (visual), Day 2 [6, 7]: Stable
- Physical stability (visual), Day 5 [6, 7]: Stable
- Physical stability (visual), Day 6 [6, 7]: Stable
- Physical stability (visual), Day 40 [6, 7]: Stable
- Physical stability (visual), Day 1 [6, 8]: Precipitated
- Physical stability (visual), Day 2 [6, 8]: Precipitated
- Physical stability (visual), Day 5 [6, 8]: Precipitated
- Physical stability (visual), Day 6 [6, 8]: Precipitated
- Physical stability (visual), Day 40 [6, 8]: Precipitated
- Physical stability (visual), Day 1 [6, 9]: Stable
- Physical stability (visual), Day 2 [6, 9]: Stable
- Physical stability (visual), Day 5 [6, 9]: Stable
- Physical stability (visual), Day 6 [6, 9]: Stable
- Physical stability (visual), Day 40 [6, 9]: Stable
